The results in this text go back to EP0186977A2, “Renin-inhibitory dipeptides, their preparation and use” (SANKYO COMPANY LIMITED, priority 1984, dated 1986).

The experiment has as its target T1, human renin (Homo sapiens, UniProt P00797).
T1 sequence (P00797 67-406): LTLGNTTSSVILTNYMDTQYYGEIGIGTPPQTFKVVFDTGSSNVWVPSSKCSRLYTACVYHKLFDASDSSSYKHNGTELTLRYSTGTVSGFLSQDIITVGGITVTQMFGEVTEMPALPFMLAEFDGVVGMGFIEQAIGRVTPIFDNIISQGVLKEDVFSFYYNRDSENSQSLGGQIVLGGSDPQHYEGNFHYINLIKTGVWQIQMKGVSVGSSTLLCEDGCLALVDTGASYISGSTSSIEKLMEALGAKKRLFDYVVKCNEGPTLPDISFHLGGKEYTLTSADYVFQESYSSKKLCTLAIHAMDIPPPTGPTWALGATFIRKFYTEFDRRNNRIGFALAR
The experiment can be described thus: Inhibition of renin activity (human renin with sheep angiotensinogen, assay of remaining angiotensin I). In kind it is biochemical. The note with it: 1 x 10 ^6M of the test compound, phosphate buffer pH 7.3, 10 minutes at 37°C, mean of 3 or 4 experiments. Here is the method: The ability of various compounds of the invention to inhibit the activity of renin was determined according to the following method, which follows essentially the procedure of Kokubu et al. [Hypertension, 5, 191-197 (1983)].
Specifically, each test compound was dissolved in 60% v/v aqueous ethanol. Human renin activity in the presence and absence of each compound was measured using sheep angiotensinogen. The total volume of 1 ml of assay mixture contained 0.1 mole/litre phosphate buffer (pH 7.3), human renin (equivalent to 0.5 ng angiotensin I per ml per minute), sheep angiotensinogen (equivalent to 200 ng angiotensin 1), 1 x 10 ^6M of the test compound, 6% v/v ethanol and angiotensinase inhibitors (10 mmole/litre sodium ethylenediaminetetraacetate and 3.4 mmole/litre 8-hydroxyquinoline). The mixture was allowed to react for 10 minutes at 37°C, and then the reaction was stopped by placing the reaction tube in a boiling water bath for 5 minutes. The mixture was then centrifuged and the supernatant (0.05-0.1 ml) was used to assay remaining angiotensin I.
An identical experiment was carried out, as a control, except that the test compound was omitted. From the values obtained were calculated the % inhibition of renin activity achieved by each test compound. The results are shown in the following Table, in which the compounds of the invention are identified by the numbers assigned to them in the foregoing list. The values given are the mean of 3 or 4 experiments.
The isomers of these test compounds employed in these experiments are those isomers prepared as described in the subsequent Examples.
For `CC[C@H](C)[C@@H](CO)NC(=O)C[C@H](O)[C@H](CC(C)C)NC(=O)C(Cc1cscn1)NC(=O)C(Cc1cccc2ccccc12)Cc1cccc2ccccc12` (mixture of isomers) [Compound No. 223, N-[4(S)-{N-[Bis(1-naphthylmethyl)acetyl]-3-(4-thiazolyl)-DL-alanylamino}-3(S)-hydroxy-6-methyl-heptanoyl]-L-isoleucinol], the inhibition at 1 µM came to 95%.

Turning to `C=CCC(NC(=O)C(Cc1cccc2ccccc12)Cc1cccc2ccccc12)C(=O)N[C@@H](CC(C)C)[C@@H](O)CC(=O)N[C@H](CO)[C@@H](C)CC` (mixture of isomers) [compound 291, N-[4(S)-{N-[Bis(1-naphthylmethyl)acetyl]-DL-allylglycylamino}-3(S)-hydroxy-6-methylheptanoyl]-L-isoleucinol], the inhibition at 1 µM amounted to 99%.

The molecule `CC[C@H](C)[C@@H](CO)NC(=O)C[C@H](O)[C@H](CC(C)C)NC(=O)[C@H](Cc1c[nH]cn1)NC(=O)C(Cc1cccc2ccccc12)Cc1cccc2ccccc12` [Compound No. 72, N-[4(S)-{N-[Bis(1-naphthylmethyl)acetyl]-L-histidylamino}-3(S)-hydroxy-6-methylheptanoyl]-L-isoleucinol] registered an inhibition at 1 µM of 99%.

Turning to `CC[C@H](C)CNC(=O)C[C@H](O)[C@H](CC(C)C)NC(=O)[C@H](Cc1c[nH]cn1)NC(=O)C(Cc1cccc2ccccc12)Cc1cccc2ccccc12` [Compound No. 74, 4(S)-{N-[Bis(1-naphthylmethyl)acetyl]-L-histidyl-amino}-3(S)-hydroxy-6-methyl-N-[2(S)-(-)-methylbutyl]-heptanamide], at 1 µM the inhibition was 98.2%.

As for `CCCC[C@H](NC(=O)C(Cc1cccc2ccccc12)Cc1cccc2ccccc12)C(=O)N[C@@H](CC(C)C)[C@@H](O)CC(=O)N[C@H](CO)[C@@H](C)CC` [Compound No. 88, N-[4(S)-{N-[Bis(1-naphthylmethyl)acetyl]-L-norleucylamino}-3(S)-hydroxy-6-methylheptanoyl]-L-isoleucinol], the inhibition at 1 µM came out at 99%.

The molecule `CC[C@H](C)[C@@H](CO)NC(=O)C[C@H](O)[C@H](CC(C)C)NC(=O)[C@H](CCSC)NC(=O)C(Cc1cccc2ccccc12)Cc1cccc2ccccc12` [Compound No. 196, N-[4(S)-{N-[Bis(1-naphthylmethyl)acetyl]-L-methionyl-amino}-3(S)-hydroxy-6-methylheptanoyl]-L-isoleucinol] registered an inhibition at 1 µM of 93.5%.

The molecule `CCCCCCCC(NC(=O)C(Cc1cccc2ccccc12)Cc1cccc2ccccc12)C(=O)N[C@@H](CC(C)C)[C@@H](O)CC(=O)N[C@H](CO)[C@@H](C)CC` (stereo partly drawn) [Compound No. 286, N-[4(S)-{2(RS)-(Bis(1-naphthylmethyl)acetyl]amino-nonanovl}amino-3(S)-hydroxv-6-methylheptanoyl]-L-isoleucinol] showed an inhibition at 1 µM of 99%.

For `CC(C)C[C@H](NC(=O)C(CCCCc1ccccc1)Cc1cccc2ccccc12)C(=O)N[C@@H](CC(C)C)[C@@H](O)CC(=O)NCCN1CCOCC1` (stereo partly drawn) [compound 15], testing at 1 µM gave an inhibition of 93.5%.

`CCOCCNC(=O)C[C@H](O)[C@H](CC(C)C)NC(=O)[C@H](CC(C)C)NC(=O)C(Cc1cccc2ccccc12)Cc1cccc2ccccc12` [compound 45, 4(S)-{N-[Bis(1-naphthylmethyl)acetyl]-L-leucylamino}-3(S)-hydroxv-6-methvl-N-(2-ethoxyethvl)heptanamide] displayed an inhibition at 1 µM of 99%.

`CC[C@H](C)[C@@H](CO)NC(=O)C[C@H](O)[C@H](CC(C)C)NC(=O)[C@H](CCC(N)=O)NC(=O)C(Cc1cccc2ccccc12)Cc1cccc2ccccc12` [compound 208, N-[4(S)-{N-[Bis(1-naphthylmethyl)acetyl]-L-glutaminylamino}-3(S)-hydroxy-6-methylheptanoyl]-L-isoleucinol] returned an inhibition at 1 µM of 93%.

`CC[C@H](C)[C@@H](CO)NC(=O)C[C@H](O)[C@H](CC(C)C)NC(=O)[C@H](CCC(=O)O)NC(=O)C(Cc1cccc2ccccc12)Cc1cccc2ccccc12` [compound 212] had an inhibition at 1 µM of 92%.

In turn, `CCCCCC(NC(=O)C(Cc1cccc2ccccc12)Cc1cccc2ccccc12)C(=O)N[C@@H](CC(C)C)[C@@H](O)CC(=O)NCC(C)CC` (stereo partly drawn) [compound 274] gave an inhibition at 1 µM of 99%.

What is called inhibition is the share of the control response that was lost under treatment. A higher inhibition goes with a response far below the control.
